How the values were obtained:
[1] = system: cultured cardiac cells; assay: Anti-hypoxia action on cultured cardiac cells (inhibition of CPK leakage); type: cell-based, rat (newborn Crj-SD); settings: Rattus norvegicus, read-out: Anti-hypoxia Activity (%), rate of inhibition on CPK leakage
Method: Anti-hypoxia action of the compounds of the present invention were investigated through studying their action in connection with the protection of cardiomuscular cells.
Primary culture of cardiac cells was prepared from newborn Crj-SD rats (2-3 day old) and used in the experiment. The primary culture was prepared according to the method described by Jones R. L. et al., Am. J. Pathol., 135, 541-556, 1989. Thus, cardiac cells were isolated from ventricle muscle using collagenase and pancreatin, and then the cardiac cells were separated and purified from cell debris, erythrocytes, and fibroblasts by means of Percoll density-gradient centrifugation. The cells were spread on a culture plate at a ratio of 2-3×10^5 cells/3.5 cm plate, and the cells were cultured for two days in Dulbecco's Modified Eagle's Medium (DMEM) containing 10% Fetal Bovine Serum (FBS) in an incubator (5% CO2 /95% Air) kept at 37° C. After sufficient growth of the cardiac cells, the culture medium was changed to DMEM free from FBS, and the culture was continued additional one day. The cells thus obtained were used in the experiment.
Hypoxia was generated using Gas Pak™ Anaerobic Chamber (BBL) which produces hypoxia by capturing residual O2 and changing it into H2 0 by the action of a H2 /CO2 generating bag and catalyst. The cardiac cell plate, wherein the culture medium had been changed to DMEM which is free from FBS and glucose, was set in the chamber, and the chamber was placed in an incubator. Anti-hypoxia activity of test compounds was determined by measuring inhibition rate of leakage of creatine phosphokinase activity into the culture medium.
The compounds tested were all dissolved in DMSO using HCO-50 as a solubilizing agent (DMSO:HCO-50=9:1), and directly charged onto the culture plate. The final concentrations of DMSO and HCO-50 in the culture medium were adjusted to 0.09% and 0.01% respectively. CPK activity was measured by colorimetry (Wako Kit) modified from Oliver method.
The numerical values in the table show cardiac cells-protecting activity of test compounds in terms of the rate (%) of inhibition on CPK leakage determined in connection with the test compounds when the amount of the CPK leakage for negative control (no addition of the test compounds) was defined as 100%.

[2] = biological target: Calcium Channel (Oryctolagus cuniculus, UniProt P15381); assay: Calcium channel antagonism: relaxing action on extracted blood vessel (rabbit femoral artery, contracture by 50 mM KCl); settings: 50 mM KCl contracture, 50% of maximum relaxing (0.1 mM papaverine)
Method: Calcium Channel Antagonism and […] Action (Relaxing Action on Extracted Blood Vessel)
Male rabbits weighing 2-3 kg (Rabiton, Japanese albino species) were anesthetized through intravenous administration of pentobarbital (50 mg/kg), and sacrificed by bloodletting through dissection of axillary artery. Femoral artery was extracted, connective tissue surrounding the artery was removed, and helical specimen was prepared. The specimen was suspended in an organ bath (20 cc) filled with 37° C. Krebs-Henseleit nutritious solution and bubbled with a 95% O2 +5% CO2 mixed gas. 1.5 g of resting tension was loaded on femoral artery. Isometric change of the tension of the specimen was recorded on a thermal recorder (Nippon Koden WT-685G) via F-D pickup Nippon Koden (TB611T) and Preamp (Nippon Koden). Ca-antagonism of a test compound was evaluated by observing relaxing action due to accumulative addition of the compound on the contracture caused by the application of 50 mM KCl. α-Blocking action was similarly evaluated by observing such relaxing action on the contracture caused by the application of 1 μM norepinephrine (NE). […] The concentration of a given compound, which is necessary for giving 50% of the maximum relaxing (IC50), was determined using the above system.

[3] = system: cardiac muscle damage due to ischemia; assay: Anti-necrosis activity (left coronary ligation and reperfusion, CPK retention in left ventricle); type: in vivo, rat (Wistar); settings: Rattus norvegicus; for inhibition in vivo at 0.3 mg/kg: 0.3 mg/kg iv
Method: Male Sic Wistar rats weighing 200-250 g were anesthetized with urethane (1 g/kg), and ramus descendens of the left coronaria was ligated for 20 minutes and then reperfused according to the method described by Hock et al (Hock, […]., Am. Heart J., 109 222, 1985). […] For three hours after the reperfusion, the rats were subjected to heat insulation on a warming mat. After 120 minutes, the hearts were extracted, and the free walls of the left ventricles were frozen and storred until determination of CPK activity. CPK activity was determined according to the method of Bernauer, W. (Arch. int. Pharmacodyn., 231 90, 1978) after minor modification. Thus, the extracted tissue was homogenized in 10 volumes of 0.1M Tris/HCl (pH 7.5) containing 1 mM mercaptoethanol and centrifuged at 20,000 g for 20 minutes. The supernatant was used for determination of CPK activity, which was conducted using a commercially available kit (CPK-Test, Wako). CPK was determined using serum CPK as a standard and expressed with "U/mg protein". […] The degree of the inhibition was measured in terms of the CPK activity retained in the left ventricle. The test results are shown in Table 7, wherein percentage of the retention (%) at each dose was calculated based on the following equation.

[4] = system: spontaneous hypertensive rats (SHR); assay: Action on blood pressure and heart rate of not-anesthetized SHR; type: in vivo, rat (SHR); settings: 30 mg/kg PO, 2 and 4 hours after administration; for Antihypertensive action (%): decrease in SBP
Method: Action of the compounds of the invention on blood pressure and heart rate of not-anesthetized spontaneous hypertensive rats (SHR)
Male Japanese Charles-River SHR (13-17 week old) were used in the experiment (S. Matsuda, J. Pharmacol. Method, 17 361, 1987). Systolic blood pressure (SBP) and heart rate of the animals were measured non-invasively (indirectly) using hemadynamometer for caudal artery pressure (6 channel type) before the administration of test compounds, at 2 and 4 hours after administration. Test compounds were dissolved in DMSO (100%) and orally administered. Decreased values in SBP and heart rate determined 2 and 4 hours after administration when compared with those determined before administration are shown in percentage (%) in the following table.

Chain of Calcium Channel (P15381 whole entry): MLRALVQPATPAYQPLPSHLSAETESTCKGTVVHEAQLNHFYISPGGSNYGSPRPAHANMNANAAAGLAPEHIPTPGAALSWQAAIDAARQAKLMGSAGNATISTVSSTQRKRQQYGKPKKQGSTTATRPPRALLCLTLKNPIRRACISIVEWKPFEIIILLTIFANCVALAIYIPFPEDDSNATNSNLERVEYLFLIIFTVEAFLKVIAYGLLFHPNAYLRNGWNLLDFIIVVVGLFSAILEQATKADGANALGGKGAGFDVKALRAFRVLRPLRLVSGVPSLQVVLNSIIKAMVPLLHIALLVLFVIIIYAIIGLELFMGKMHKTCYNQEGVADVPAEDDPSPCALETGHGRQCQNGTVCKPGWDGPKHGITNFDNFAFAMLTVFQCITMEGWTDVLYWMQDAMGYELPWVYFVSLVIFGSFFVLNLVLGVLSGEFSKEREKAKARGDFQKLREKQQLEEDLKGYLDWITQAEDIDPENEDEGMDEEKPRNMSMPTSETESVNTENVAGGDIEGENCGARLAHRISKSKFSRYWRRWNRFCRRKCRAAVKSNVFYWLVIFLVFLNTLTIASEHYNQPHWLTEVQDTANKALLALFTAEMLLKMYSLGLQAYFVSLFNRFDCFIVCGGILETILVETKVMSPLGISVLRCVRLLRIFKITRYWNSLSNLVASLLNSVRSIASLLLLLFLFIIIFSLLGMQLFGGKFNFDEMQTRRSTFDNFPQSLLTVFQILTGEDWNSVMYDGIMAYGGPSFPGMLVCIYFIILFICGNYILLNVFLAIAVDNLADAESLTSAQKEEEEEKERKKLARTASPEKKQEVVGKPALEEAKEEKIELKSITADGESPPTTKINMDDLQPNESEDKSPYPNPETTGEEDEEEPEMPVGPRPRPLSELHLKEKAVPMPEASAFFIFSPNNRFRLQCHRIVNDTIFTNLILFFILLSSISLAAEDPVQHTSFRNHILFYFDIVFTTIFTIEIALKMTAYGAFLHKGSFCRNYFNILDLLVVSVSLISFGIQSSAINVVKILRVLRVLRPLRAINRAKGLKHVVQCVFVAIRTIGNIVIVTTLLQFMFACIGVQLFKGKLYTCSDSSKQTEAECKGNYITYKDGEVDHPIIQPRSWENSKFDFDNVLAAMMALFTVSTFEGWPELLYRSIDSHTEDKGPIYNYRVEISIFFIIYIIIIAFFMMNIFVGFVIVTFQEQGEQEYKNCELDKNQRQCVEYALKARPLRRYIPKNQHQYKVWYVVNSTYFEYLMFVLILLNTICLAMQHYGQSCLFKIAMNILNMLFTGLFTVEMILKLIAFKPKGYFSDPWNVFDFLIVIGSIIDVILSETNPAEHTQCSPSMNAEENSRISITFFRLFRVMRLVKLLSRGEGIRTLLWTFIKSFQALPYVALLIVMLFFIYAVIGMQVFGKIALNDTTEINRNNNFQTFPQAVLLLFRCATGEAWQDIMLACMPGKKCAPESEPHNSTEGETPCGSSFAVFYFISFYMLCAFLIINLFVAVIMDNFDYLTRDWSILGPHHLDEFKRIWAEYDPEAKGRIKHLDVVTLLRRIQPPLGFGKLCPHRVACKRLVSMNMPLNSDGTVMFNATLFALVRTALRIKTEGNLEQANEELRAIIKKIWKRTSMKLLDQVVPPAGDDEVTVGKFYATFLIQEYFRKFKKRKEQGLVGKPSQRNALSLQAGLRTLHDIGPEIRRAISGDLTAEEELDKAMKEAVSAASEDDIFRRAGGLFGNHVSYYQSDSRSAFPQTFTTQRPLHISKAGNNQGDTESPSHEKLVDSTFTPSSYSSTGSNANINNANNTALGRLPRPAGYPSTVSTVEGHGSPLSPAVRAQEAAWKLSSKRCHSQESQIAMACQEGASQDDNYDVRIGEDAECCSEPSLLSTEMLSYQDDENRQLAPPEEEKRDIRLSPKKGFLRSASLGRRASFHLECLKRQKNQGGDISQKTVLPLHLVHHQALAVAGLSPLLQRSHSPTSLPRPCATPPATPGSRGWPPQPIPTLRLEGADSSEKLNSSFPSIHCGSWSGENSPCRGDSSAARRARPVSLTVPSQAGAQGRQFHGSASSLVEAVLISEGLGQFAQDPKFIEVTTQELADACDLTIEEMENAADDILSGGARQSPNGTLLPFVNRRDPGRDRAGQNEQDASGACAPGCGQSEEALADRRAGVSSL
Chain of Calcium Channel (P13806 27-960 partner limits assumed): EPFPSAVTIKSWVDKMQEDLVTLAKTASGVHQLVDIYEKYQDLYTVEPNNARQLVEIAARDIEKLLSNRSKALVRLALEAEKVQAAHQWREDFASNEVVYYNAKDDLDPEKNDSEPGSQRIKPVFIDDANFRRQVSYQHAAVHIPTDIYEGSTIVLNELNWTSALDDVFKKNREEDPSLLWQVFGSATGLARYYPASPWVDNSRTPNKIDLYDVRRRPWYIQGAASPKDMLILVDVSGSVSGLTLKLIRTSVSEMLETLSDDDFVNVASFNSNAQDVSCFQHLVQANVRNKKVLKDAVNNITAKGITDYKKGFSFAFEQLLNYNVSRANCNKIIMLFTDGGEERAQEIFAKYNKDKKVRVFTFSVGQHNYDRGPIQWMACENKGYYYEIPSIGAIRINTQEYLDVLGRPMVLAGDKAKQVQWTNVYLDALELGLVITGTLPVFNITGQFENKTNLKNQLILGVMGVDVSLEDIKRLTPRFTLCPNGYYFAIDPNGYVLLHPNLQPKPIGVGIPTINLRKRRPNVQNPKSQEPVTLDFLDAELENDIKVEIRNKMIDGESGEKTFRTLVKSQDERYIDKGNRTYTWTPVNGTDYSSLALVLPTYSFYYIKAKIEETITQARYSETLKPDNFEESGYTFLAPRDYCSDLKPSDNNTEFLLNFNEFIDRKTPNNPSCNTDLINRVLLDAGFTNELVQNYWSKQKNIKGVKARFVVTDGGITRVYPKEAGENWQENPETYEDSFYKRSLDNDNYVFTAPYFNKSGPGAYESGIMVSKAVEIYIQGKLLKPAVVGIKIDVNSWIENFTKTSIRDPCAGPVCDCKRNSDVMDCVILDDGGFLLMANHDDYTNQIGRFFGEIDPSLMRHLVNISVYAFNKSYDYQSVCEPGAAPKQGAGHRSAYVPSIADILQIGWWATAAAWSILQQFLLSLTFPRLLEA
Chain of Calcium Channel (P13806 961-1106 partner limits assumed): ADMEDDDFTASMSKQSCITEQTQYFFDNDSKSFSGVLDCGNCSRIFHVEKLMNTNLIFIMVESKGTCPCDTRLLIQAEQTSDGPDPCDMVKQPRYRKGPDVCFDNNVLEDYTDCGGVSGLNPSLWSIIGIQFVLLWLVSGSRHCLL

| SMILES | inhibition at 10 µM [1] | inhibition at 1 µM [1] | other results |
| --- | --- | --- | --- |
| COc1ccc([C@@H]2Sc3cc(Cl)ccc3N(CCCN3CCN(c4ccccc4)CC3)C(=O)[C@@H]2OC(C)=O)cc1 (relative stereo) [Compound I-1, 3-Acetoxy-5-[3-(4,phenyl-1-piperazinyl)propyl]-2,3-dihydro-2-(4-metoxyphenyl)-8-chloro-1,5-benzothiazepin-4(5H)-one] | 66% | – | – |
| COc1ccc([C@@H]2Sc3cc(Cl)ccc3N(CCCN3CCN(c4ccccn4)CC3)C(=O)[C@@H]2OC(C)=O)cc1 (relative stereo) [Compound I-3, 3-Acetoxy-5-[3-(4-(2-piridyl)1-piperazinyl)propyl]-2,3-dihydro-2-(4-methoxyphenyl)-8-chloro-1,5-benzothiazepin-4(5H)-one] | – | 34% | – |
| COc1ccc([C@@H]2Sc3cc(Cl)ccc3N(CCCN3CCN(Cc4ccc5c(c4)OCO5)CC3)C(=O)[C@@H]2OC(C)=O)cc1 (relative stereo) [Compound I-5] | 66% | – | IC50 [2]: 250 nM |
| COc1ccc([C@@H]2Sc3cc(Cl)ccc3N(CCCN3CCN(C(=O)c4ccco4)CC3)C(=O)[C@@H]2OC(C)=O)cc1 (relative stereo) [Compound I-7, 3-Acetoxy-5-[3-(4-(2-furoyl)-1-piperazinyl)propyl]-2,3-dihydro-2-(4-methoxyphenyl)-8-chloro-1,5-benzothiazepin-4(5H)-one] | – | 36% | – |
| COc1ccc([C@@H]2Sc3cc(Cl)ccc3N(CCN3CCC(c4ccccc4)CC3)C(=O)[C@@H]2OC(C)=O)cc1 (relative stereo) [Compound I-11] | – | – | IC50 [2]: 200 nM |
| COc1ccc([C@@H]2Sc3cc(Cl)ccc3N(CCCN3CCN(c4ccc(F)cc4)CC3)C(=O)[C@@H]2OC(C)=O)cc1 (relative stereo) [Compound I-12, 3-Acetoxy-5-[3-(4-(4-fluorophenyl)-piperazinyl)propyl]-2,3-dihydro-2-(4-methoxyphenyl)-8-chloro-1,5-benzothiazepin-4(5H)-one] | 87% | 10% | inhibition in vivo at 1 mg/kg ([3]; 1 mg/kg iv): 23% |
| COc1ccc([C@@H]2Sc3cc(Cl)ccc3N(CCN3CCN(c4ccc(F)cc4)CC3)C(=O)[C@@H]2OC(C)=O)cc1 (relative stereo) [Compound I-13, 3-Acetoxy-5-[2-(4-(4-fluorophenyl)-piperazinyl)ethyl]-2,3-dihydro-2-(4-methoxyphenyl)-8-chloro-1,5-benzothiazepin-4(5H)-one] | 61% | 15% | – |
| COc1ccc([C@@H]2Sc3cc(Cl)ccc3N(CCCN3CCC(c4ccccc4)(c4ccccc4)CC3)C(=O)[C@@H]2OC(C)=O)cc1 (relative stereo) [Compound I-14, 3-Acetoxy-5-[3-(4,4-diphenyl-1piperizinyl)propyl]-2,3-dihydro-2-(4-methoxyphenyl)-8-chloro-1,5-benzothiazepin-4(5H)-one] | 83.6% | – | IC50 [2]: 100 nM; Decrease of heart rate (%) [4]: 9.8%; Antihypertensive action (%) [4]: 14% |
| COc1ccc([C@@H]2Sc3cc(Cl)ccc3N(CCCN3CCN(C(c4ccccc4)c4ccc(Cl)cc4)CC3)C(=O)[C@@H]2OC(C)=O)cc1 (relative stereo) [Compound I-16, 3-Acetoxy-5-[3-(4-(4-chlorobenzhydryl)-piperazinyl)propyl]-2,3-dihydro-2-(4-methoxyphenyl)-8-chloro-1,5-benzothiazepin-4(5H)-one] | 57% | 18.4% | IC50 [2]: 240 nM; Decrease of heart rate (%) [4]: 15%; Antihypertensive action (%) [4]: 19% |
| COc1ccc([C@@H]2Sc3cc(Cl)ccc3N(CCCN3CCN(C(c4ccccc4)c4ccccc4)CC3)C(=O)[C@@H]2OC(C)=O)cc1 [Compound I-23, (2S-cis)-3-Acetoxy-5-[3-(4-(benzhydryl)-piperazinyl)propyl]-2,3-dihydro-2-(4-methoxyphenyl)-8-chloro-1,5-benzothiazepin-4(5H)-one] | 87% | 36.4% | Decrease of heart rate (%) [4]: 12%; Antihypertensive action (%) [4]: 16%; inhibition in vivo at 0.3 mg/kg [3]: 45% |
| COc1ccc([C@@H]2Sc3cc(Cl)ccc3N(CCCN3CCN(C(c4ccc(Cl)cc4)c4ccc(Cl)cc4)CC3)C(=O)[C@@H]2OC(C)=O)cc1 [Compound I-24, (2S-cis)-3-Acetoxy-5-[3-(4-(4-dichlorobenzhydryl)-1-piperazinyl)propyl]-2,3-dihydro-2-(4-methoxyphenyl)-8-chloro-l,5-benzothiazepin-4(5H)-one] | 88% | 14.1% | inhibition in vivo at 0.3 mg/kg [3]: 35% |
| COc1ccc([C@@H]2Sc3cc(Cl)ccc3N(CCCN3CCN(c4ccc(Cl)cc4)CC3)C(=O)[C@@H]2OC(C)=O)cc1 [Compound I-25, (2S-cis)-3-Acetoxy-5-[3-(4-(4-chlorophenyl)-1-piperazinyl)propyl]-2,3-dihydro-2-(4-methoxyphenyl)-8-chloro-l,5-benzothiazepin-4(5H)-one] | 89% | 25.2% | – |
| COc1ccc([C@@H]2Sc3cc(Cl)ccc3N(CCCN3CCN(c4ccc(OC)cc4)CC3)C(=O)[C@@H]2OC(C)=O)cc1 [Compound I-29, (2S-cis)-3-Acetoxy-5-[3-(4-(4methoxyphenyl) -1-piperazinyl)propyl]methoxyphenyl-8-chloro-1,5-benzothiazepin-4(5H)-one] | – | 30% | – |
| COc1ccc([C@@H]2Sc3cc(Cl)ccc3N(CCCN3CCN(c4cc(OC)c(OC)c(OC)c4)CC3)C(=O)[C@@H]2OC(C)=O)cc1 [Compound I-32, (2S-cis)-3-Acetoxy-5-[3-(4-(3,4,5trimethoxyphenyl) - 1-piperazinyl)propyl]-2,3-dihydro-2-(4methoxyphenyl) -8-chloro-1,5-benzothiazepin-4 (5H)-one] | 66.1% | – | – |
| COc1ccc([C@@H]2Sc3cc(Cl)ccc3N(CCCCN3CCN(c4ccccc4OC)CC3)C(=O)[C@@H]2OC(C)=O)cc1 [Compound I-33, (2S-cis)-3-Acetoxy-5-[4-(4-(2-methoxyphenyl)-1-piperazinyl)butyl]-2,3-dihydro-2-(4-methoxyphenyl)-8-chloro-1,5-benzothiazepin-4(5H)-one] | 87% | 36.9% | – |
| COc1ccc([C@@H]2Sc3cc(Cl)ccc3N(CCCCCN3CCN(c4ccccc4OC)CC3)C(=O)[C@@H]2OC(C)=O)cc1 [Compound I-34, (2S-cis)-3-Acetoxy-5-[5-(4-(2-methoxyphenyl)-1-piperazinyl)pentyl]-2,3-dihydro-2-(4-methoxyphenyl)-8-chloro-l,5-benzothiazepin-4(5H)-one] | 80% | – | – |
